Reference: patent publication US9415104B2, “Combination therapy to enhance NK cell mediated cytotoxicity” (NOVO NORDISK A/S, priority 2008, dated 2016)

Columns and labels:
p-SHIP1 (Tyr1020) = experiment: Western blot of cell lysates, densitometry normalized to GAPDH (FIG. 9); conditions: 10 μmol/L lenalidomide; DMSO = 1.00; NK cells
U266 cells [1] = experiment: Europium release cytotoxicity assay, U266 target cells pre-incubated with lenalidomide (FIG. 6); assay type: cell-based, human; conditions: U266 cultured with lenalidomide (5 µM) for 5 days vs not exposed; different E:T ratios
Procedure: U266 cells were cultured in RPMI medium with 10% human AB serum (complete medium) in the presence or absence of lenalidomide (5 µM) for 5 days, and then used as target cells in Europium release cytotoxicity assays.
(§1) The Europium release cytotoxicity assay was performed according to the instruction of DELFIA® EuTDA Cytotoxicity AD0116 kit (PerkinElmer).

[2] = test system: NK cell receptors NKG2D, NKG2A, KIR2DL1/S1, KIR2DL2/L3; experiment: NK cell receptor expression by flow-cytometry (FIG. 5); assay type: cell-based; conditions: purified NK cells cultured 72 hours in presence or absence of lenalidomide
Procedure: Referring now to FIG. 5. NK cells were purified from buffy coats of normal blood donors by immunomagnetic selection (CD3 depletion followed by CD56 selection) using the autoMACS (Milteny Biotec, Auburn, Calif.). Purified NK cells were cultured in RPMI medium with 10% human AB serum for 72 hours in the presence or absence of lenalidomide. NK cells were then assayed for receptor expression by flow-cytometry.

[3] = test system: activating ligands MICA, MICA/B, DR4, DR5, ULBP1, ULBP2, PVR and Nectin-2 (CD112) in U266 cells; experiment: Expression of activating ligands on U266 cells by flow-cytometry (FIG. 7, FIG. 8); conditions: lenalidomide 5 μM for 5 days; at least 4 independent experiments; paired t-test
Procedure: Briefly, U266 cells were cultured in complete medium in the presence or absence of lenalidomide (5 μM) for 5 days.
In this experiment U266 cells were analyzed as described as in the above. The data were analyzed using the paired t-test.

[4] = test system: phospho-p44/42 (Erk1/2) Thr202/Tyr204; experiment: Western blot of cell lysates, densitometry normalized to GAPDH (FIG. 9); conditions: 10 μmol/L lenalidomide; DMSO = 1.00; NK cells
U266 cells [5] = experiment: Europium release cytotoxicity assay, PBMC as effectors against U266 cells (FIG. 3, FIG. 4)
Procedure: The target cells were U266 cells. […] Lysis of U266 target cells is measured in the presence and absence of 10 μM lenalidomide.
Peripheral blood mononuclear cells (PBMC) were obtained from normal donors following a Ficoll gradient separation. These cells were incubated for 72 hours in lenalidomide (10 μmolL^−1) or DMSO as control, and then used as effector cells against U266 target cells in the presence or absence of 1-7F9 blocking antibody in Europium release cytotoxicity assays. Cytotoxicity assays were performed in the presence or absence of 30 μg/ml 1-7F9. In experiments investigating the combination, PBMC were treated with lenalidomide (10 μmolL^−1) or DMSO (control) for 72 hours, and then used as effector cells in the presence or absence of 1-7F9 (30 μgml^−1) in europium release assay.
Effector cells: PBMC and NK cells were collected from random donors. Target cells: The myeloma (MM) cell line U266 co-expresses class I and II HLA-C ligands. The K562 cell line is negative for HLA class I molecules and acts as negative control for 1-7F9 blocking experiment.
as §1

NK cells = experiment: Total NK cell numbers in PBMC culture; assay type: cell-based; conditions: 10 μmol/L lenalidomide treatment vs DMSO treatment
From the text: The target cells were U266 cells.

KIR2DL3 (human) = KIR2DL3 (human) (UniProt P43628)
KIR2DL1 (human) = KIR2DL1 (human) (UniProt P43626)
KIR2DL2 (human) = KIR2DL2 (human) (UniProt P43627)

Nc1cccc2c1CN(C1CCC(=O)NC1=O)C2=O (stereo not drawn) [lenalidomide, 3-(4-amino-1-oxo-1,3 dihydro-isoindol-2-yl)piperidine-2,6-dione]
P-SHIP1(Tyr1020)/GAPDH (p-SHIP1 (Tyr1020)): 1.76 | susceptibility of U266 target cells to lysis by NK cells (U266 cells [1]): more susceptible to lysis | NK cell receptor expression (NKG2D, NKG2A, KIR2DL1, KIR2DL2/3) [2]: no effect | expression of activating ligands on U266 cells [3]: significantly increase the expression of only MICA, DR4, ULBP2, and CD112 | phospho-p44/42 (Erk1/2) Thr202/Tyr204)/GAPDH [4]: 0.98 | specific lysis of U266 cells (U266 cells [5]; E:T ratio 60:1, PBMC treated 72 hours with lenalidomide 10 μmolL^−1 or DMSO, 1-7F9 30 μg/ml, DMSO control 19±4%): 27±1.3% | killing of U266 cells by PBMC (percent of specific release) (U266 cells [5]; PBMC treated with 10 μM lenalidomide for 72 h without IL-2, vs DMSO, different E:T ratios): enhanced cytotoxicity | NK cell induced lysis of U266 cells (U266 cells [5]; PBMC treated with 10 μmolL^−1 lenalidomide for 72 hours with or without interleukin (IL)-2): increased | total NK cell numbers in the culture (NK cells): essentially the same

1-7F9 (antibody)
specific lysis of U266 cells by PBMC, Europium release cytotoxicity assay, E:T ratio of 60:1 (% specific lysis) (KIR2DL3 (human)): 32 | specific lysis of U266 cells by PBMC, Europium release cytotoxicity assay, E:T ratio of 60:1 (% specific lysis) (KIR2DL1 (human)): 32 | specific lysis of U266 cells by PBMC, Europium release cytotoxicity assay, E:T ratio of 60:1 (% specific lysis) (KIR2DL2 (human)): 32
